This passage reports EC50, AC50 and IC50 results from ChEMBL document CHEMBL1201862, “PubChem BioAssay data set” (2004).

Molecules are shown by their SMILES. The source made the active and inactive calls.

The target in experiment [1] is T1, Zinc finger protein mex-5 (Caenorhabditis elegans, UniProt Q9XUB2).
T1 sequence (Q9XUB2 whole entry): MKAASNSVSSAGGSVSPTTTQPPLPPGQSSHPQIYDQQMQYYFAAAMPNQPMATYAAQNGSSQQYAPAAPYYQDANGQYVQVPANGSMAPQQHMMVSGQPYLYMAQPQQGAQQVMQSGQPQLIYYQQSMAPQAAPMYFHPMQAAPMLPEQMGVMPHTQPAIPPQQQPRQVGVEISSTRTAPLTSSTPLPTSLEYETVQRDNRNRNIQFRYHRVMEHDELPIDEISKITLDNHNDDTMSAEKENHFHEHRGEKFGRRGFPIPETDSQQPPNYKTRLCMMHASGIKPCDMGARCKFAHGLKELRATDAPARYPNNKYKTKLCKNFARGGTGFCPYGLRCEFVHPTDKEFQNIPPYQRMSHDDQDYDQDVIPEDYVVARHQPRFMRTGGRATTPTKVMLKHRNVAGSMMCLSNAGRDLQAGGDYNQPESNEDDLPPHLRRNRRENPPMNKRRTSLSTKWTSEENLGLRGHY
Briefly: MEX-5/TCR-2 RNA interaction inhibitors, dose response, biochemical, C. elegans, fluorescence polarization (AID 1960). A general note: Fluorescence polarisation rises when a labelled molecule tumbles more slowly, as on binding a larger partner.

A short description of experiment [2]: inhibitors of HIV Env-driven cell fusion, dose response, cherry-pick (AID 652057). Format: functional, cell-based.
Experiment [3] in a line: control 3'UTR Renilla luciferase suppression, dose response, counter-screen for Shn3 inhibitor project, cell-based, Clone20-Shn3RL, cherry-picked (AID 624133). Format: functional.
Experiment [4] in a line: cytotoxicity in HEK-293T cells, dose response, cytotoxicity control for TCR NF-kB inhibitor project, luminescence, T-cell screen hits (AID 489026).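 Further: cells exposed to compound about 14 hours before the viability readout.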 Format: functional, cell-based.
Experiment [5] deals with T2, Serine/threonine-protein phosphatase (Homo sapiens, UniProt Q9BPW0).
T2 sequence (Q9BPW0 whole entry): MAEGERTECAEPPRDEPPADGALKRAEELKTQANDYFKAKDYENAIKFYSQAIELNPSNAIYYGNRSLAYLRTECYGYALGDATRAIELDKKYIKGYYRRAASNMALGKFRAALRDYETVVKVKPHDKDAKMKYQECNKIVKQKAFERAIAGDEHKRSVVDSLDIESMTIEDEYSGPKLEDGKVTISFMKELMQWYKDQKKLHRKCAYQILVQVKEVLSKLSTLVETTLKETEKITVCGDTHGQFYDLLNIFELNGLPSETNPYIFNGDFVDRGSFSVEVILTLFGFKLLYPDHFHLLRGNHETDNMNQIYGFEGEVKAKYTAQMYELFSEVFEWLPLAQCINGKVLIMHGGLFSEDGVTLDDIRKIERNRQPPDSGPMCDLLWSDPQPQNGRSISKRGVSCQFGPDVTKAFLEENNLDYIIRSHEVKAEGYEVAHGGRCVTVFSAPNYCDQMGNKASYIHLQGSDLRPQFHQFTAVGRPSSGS
Briefly: PP5 phosphatase inhibitors, dose response, biochemical, fluorescence (AID 2395).

Experiment [6] addresses T3, Short transient receptor potential channel 4 (Mus musculus, UniProt Q9QUQ5).
T3 sequence (Q9QUQ5 whole entry): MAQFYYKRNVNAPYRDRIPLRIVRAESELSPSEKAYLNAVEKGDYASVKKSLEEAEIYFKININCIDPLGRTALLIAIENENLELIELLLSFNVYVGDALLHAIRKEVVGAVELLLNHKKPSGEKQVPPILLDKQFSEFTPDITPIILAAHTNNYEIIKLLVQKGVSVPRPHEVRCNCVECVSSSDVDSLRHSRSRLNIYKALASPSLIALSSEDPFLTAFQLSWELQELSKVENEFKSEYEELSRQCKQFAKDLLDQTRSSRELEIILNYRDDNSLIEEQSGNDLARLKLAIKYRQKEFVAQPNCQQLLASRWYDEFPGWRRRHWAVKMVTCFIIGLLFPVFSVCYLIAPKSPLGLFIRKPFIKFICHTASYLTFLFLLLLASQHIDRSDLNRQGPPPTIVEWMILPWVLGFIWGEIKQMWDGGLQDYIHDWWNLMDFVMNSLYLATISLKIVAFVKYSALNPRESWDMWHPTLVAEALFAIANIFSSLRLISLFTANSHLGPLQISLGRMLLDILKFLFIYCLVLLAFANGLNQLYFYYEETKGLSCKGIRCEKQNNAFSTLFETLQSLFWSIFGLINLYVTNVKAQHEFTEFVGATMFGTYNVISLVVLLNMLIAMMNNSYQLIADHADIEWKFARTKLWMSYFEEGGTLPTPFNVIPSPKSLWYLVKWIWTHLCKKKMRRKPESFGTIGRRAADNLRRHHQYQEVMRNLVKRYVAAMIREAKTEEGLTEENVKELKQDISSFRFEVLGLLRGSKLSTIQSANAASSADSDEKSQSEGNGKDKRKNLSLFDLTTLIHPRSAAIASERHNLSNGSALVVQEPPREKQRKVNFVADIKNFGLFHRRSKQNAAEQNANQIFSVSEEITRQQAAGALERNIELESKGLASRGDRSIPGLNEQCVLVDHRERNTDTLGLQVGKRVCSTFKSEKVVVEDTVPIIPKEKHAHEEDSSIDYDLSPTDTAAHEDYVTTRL
Briefly: mouse TRPC4 channel inhibitors, dose response, cell-based, HEK293 TRPC4/mu-opioid, Fluo-4 calcium (AID 434942).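 Further: potency of inhibitors blocking the TRPC4 calcium response.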 Format: functional.

For the next experiment, the target named is T4, Hexokinase HKDC1 (Homo sapiens, UniProt Q2TB90).
T4 sequence (Q2TB90 whole entry): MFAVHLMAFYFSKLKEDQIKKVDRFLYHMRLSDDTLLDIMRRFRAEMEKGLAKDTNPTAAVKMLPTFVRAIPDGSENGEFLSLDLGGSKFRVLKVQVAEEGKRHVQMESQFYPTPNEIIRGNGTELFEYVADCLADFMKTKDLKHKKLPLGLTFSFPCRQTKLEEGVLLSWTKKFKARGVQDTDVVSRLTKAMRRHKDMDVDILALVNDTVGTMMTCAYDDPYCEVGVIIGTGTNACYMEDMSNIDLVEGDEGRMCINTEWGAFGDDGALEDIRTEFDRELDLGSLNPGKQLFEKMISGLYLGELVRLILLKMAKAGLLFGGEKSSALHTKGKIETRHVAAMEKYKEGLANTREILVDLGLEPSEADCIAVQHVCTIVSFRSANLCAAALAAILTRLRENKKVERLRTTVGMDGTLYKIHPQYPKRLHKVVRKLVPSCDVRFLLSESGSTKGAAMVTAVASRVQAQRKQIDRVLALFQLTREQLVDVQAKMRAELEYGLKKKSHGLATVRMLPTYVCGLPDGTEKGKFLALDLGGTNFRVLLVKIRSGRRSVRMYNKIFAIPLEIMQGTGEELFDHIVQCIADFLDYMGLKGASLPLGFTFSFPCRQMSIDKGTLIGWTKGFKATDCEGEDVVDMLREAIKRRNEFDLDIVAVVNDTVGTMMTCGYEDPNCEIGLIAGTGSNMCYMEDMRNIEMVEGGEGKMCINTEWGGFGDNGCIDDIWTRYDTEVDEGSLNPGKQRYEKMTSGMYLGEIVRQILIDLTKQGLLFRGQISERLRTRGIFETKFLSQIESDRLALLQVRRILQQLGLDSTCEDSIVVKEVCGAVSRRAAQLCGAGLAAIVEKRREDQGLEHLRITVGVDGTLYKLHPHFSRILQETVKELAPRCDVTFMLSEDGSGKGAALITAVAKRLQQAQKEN
Briefly: HKDC1 hexokinase activators, dose response, biochemical, W721R variant (AID 504730). Format: functional.

The EC50 is the concentration that produces a half-maximal response. What is called AC50 is the concentration giving half of the maximal activity seen. `CCCCCCCCCCCCCCCCn1cc[n+](C)c1`: the EC50 in experiment [1] was > 300 µM (inconclusive). Also, the AC50 in experiment [2] was 22 µM (active).
By IC50 is commonly meant the concentration that inhibits the measured activity by half. `O=C(Nc1ccccc1Cl)/C(Cl)=C(\Cl)[S+]([O-])c1ccccc1` (configuration not stated): the AC50 in experiment [3] was 5.77 µM (active). Besides, in experiment [4], the IC50 was 61.9 µM (inactive).
Turning to `O=C(NC1(O)C(=O)c2ccccc2C1=O)c1ccccc1`, the half-maximal inhibitory concentration (IC50) in experiment [5] is > 0.828 µM (active).
Consider `Cc1ccc(C)c(S(=O)(=O)/N=C2\C=C(NS(=O)(=O)c3ccccc3)C(=O)c3ccccc32)c1`, for which, in experiment [6], the concentration for a half-maximal effect (EC50) was 6.68 µM (active).
As for `Cc1cc(C)nc(/N=c2/ssnc2Cl)c1`, the EC50 at Hexokinase HKDC1 is 43.1 µM (inactive).
